Data: ChEMBL document CHEMBL5727755, “Boronic acid derivatives” (2020)

Test: Determination of LMP7 Activity: Measurement of LMP7 inhibition is performed in 384 well format based on fluorescence intensity assay.Purified human immuno proteasome (0.25 nM) and serial diluted compounds in DMSO (range of concentrations from 30 μM to 15 pM) or controls are incubated for 20 minutes or 120 minutes (long incubation) at 25° C. in assay buffer containing 50 mM Tris pH 7.4, 0.03% SDS, 1 mM EDTA and 1% DMSO. The reaction is initiated by the addition of the fluorogenic peptide substrate, Suc-LLVY-AMC (Bachem 1-1395), at a concentration of 40 μM. After 60 minutes of incubation at 37° C., fluorescence intensity is measured at λex=350 nm and λem=450 nm with a fluorescence reader (Perkin Elmer Envision reader or equivalent).

| IC50 | SMILES |
| --- | --- |
| < 50 nM | CC#CC(=O)N(CCC)CC(=O)N[C@@H](Cc1ccc(C)cc1C)B(O)O |
| in the range around 275 nM | C=CS(=O)(=O)N(C)CC(=O)N[C@@H](Cc1ccc(C)c(C)c1)B(O)O |
